Tested on: MV-4-11 cells
Test: Gene expression microarray analysis (Affymetrix PrimeView) and GSEA
Format: cell-based, human
Design: RFU PODN (11730768_x_at) / Fold change /veh PODN (11730768_x_at) / RFU LINC00158 (11744669_a_at) / Fold change /veh LINC00158 (11744669_a_at) / RFU DUSP10 (11751237_a_at) / Fold change /veh DUSP10 (11751237_a_at) / RFU ID3 (11757404_x_at) / Fold change /veh ID3 (11757404_x_at) / RFU PLEKHG5 (11737974_s_at) / Fold change /veh PLEKHG5 (11737974_s_at) / RFU LRRC4B (11730491_at) / Fold change /veh LRRC4B (11730491_at) / RFU GIMAP4 (11747438_a_at) / Fold change /veh GIMAP4 (11747438_a_at) / RFU KRT8 (11758183_x_at) / Fold change /veh KRT8 (11758183_x_at) / RFU CNN1 (11734310_a_at) / Fold change /veh CNN1 (11734310_a_at) / RFU VPS37D (11726825_at) / Fold change /veh VPS37D (11726825_at) / RFU C10orf10 (11716522_x_at) / Fold change /veh C10orf10 (11716522_x_at) / RFU KIR2DL2 /// KIR2DL4 /// KIR2DL5A /// KIR2DL5B /// KIR2DS1 /// KIR2DS2 /// KIR2DS3 /// KIR2DS4 /// KIR3DL3 /// KIR3DL3 /// KIR3DS1 (11738374_at) / Fold change /veh KIR2DL2 /// KIR2DL4 /// KIR2DL5A /// KIR2DL5B /// KIR2DS1 /// KIR2DS2 /// KIR2DS3 /// KIR2DS4 /// KIR3DL3 /// KIR3DL3 /// KIR3DS1 (11738374_at) / RFU C1QL1 (11718748_at) / Fold change /veh C1QL1 (11718748_at) / RFU TMPRSS4 (11747572_a_at) / Fold change /veh TMPRSS4 (11747572_a_at) / RFU HAMP (11756126_x_at) / Fold change /veh HAMP (11756126_x_at) / RFU RNFT2 (11725882_a_at) / Fold change /veh RNFT2 (11725882_a_at) / RFU NR4A2 (11747474_a_at) / Fold change /veh NR4A2 (11747474_a_at) / RFU ABCC12 (11746883_a_at) / Fold change /veh ABCC12 (11746883_a_at) / RFU TMEM136 (11760407_x_at) / Fold change /veh TMEM136 (11760407_x_at) / RFU CLDN22 /// WWC2 (11732394_at) / Fold change /veh CLDN22 /// WWC2 (11732394_at) / RFU HLA-DPB1 (11760878_x_at) / Fold change /veh HLA-DPB1 (11760878_x_at) / RFU SPINT1 (11716480_a_at) / Fold change /veh SPINT1 (11716480_a_at) / RFU GAP43 (11754022_s_at) / Fold change /veh GAP43 (11754022_s_at) / RFU A4GNT (11735810_at) / Fold change /veh A4GNT (11735810_at) / RFU PRB3 (11715151_x_at) / Fold change /veh PRB3 (11715151_x_at) / RFU TUBB4B (11761932_at) / Fold change /veh TUBB4B (11761932_at) / RFU CAPN14 (11732068_a_at) / Fold change /veh CAPN14 (11732068_a_at) / RFU TMCC2 (11721928_a_at) / Fold change /veh TMCC2 (11721928_a_at) / RFU IRGQ (11745062_a_at) / Fold change /veh IRGQ (11745062_a_at) / RFU FAM174B (11720279_a_at) / Fold change /veh FAM174B (11720279_a_at) / RFU TMPRSS4 (11748680_a_at) / Fold change /veh TMPRSS4 (11748680_a_at) / RFU FAM212B (11763350_a_at) / Fold change /veh FAM212B (11763350_a_at) / RFU PLEKHG5 (11743358_a_at) / Fold change /veh PLEKHG5 (11743358_a_at) / RFU ZSCAN30 (11745921_a_at) / Fold change /veh ZSCAN30 (11745921_a_at) / RFU CMKLR1 (11741424_a_at) / Fold change /veh CMKLR1 (11741424_a_at) / RFU LOC101060620 /// MAPK8IP1 (11723275_at) / Fold change /veh LOC101060620 /// MAPK8IP1 (11723275_at) / RFU SPTSSB (11747773_x_at) / Fold change /veh SPTSSB (11747773_x_at) / RFU PRSS12 (11739890_at) / Fold change /veh PRSS12 (11739890_at) / RFU BIN1 (11741810_x_at) / Fold change /veh BIN1 (11741810_x_at) / RFU WNT11 (11732464_a_at) / Fold change /veh WNT11 (11732464_a_at) / RFU C10orf10 (11716521_a_at) / Fold change /veh C10orf10 (11716521_a_at) / RFU C5orf56 (11738089_at) / Fold change /veh C5orf56 (11738089_at) / RFU CYB561 (11721691_x_at) / Fold change /veh CYB561 (11721691_x_at) / RFU ANKRD19P (11752326_a_at) / Fold change /veh ANKRD19P (11752326_a_at) / RFU OR2T12 /// OR2T33 /// OR2T8 (11738714_s_at) / Fold change /veh OR2T12 /// OR2T33 /// OR2T8 (11738714_s_at) / RFU VCAN (11748164_a_at) / Fold change /veh VCAN (11748164_a_at) / RFU JSRP1 (11732532_at) / Fold change /veh JSRP1 (11732532_at) / RFU KRTAP10-11 (11738290_x_at) / Fold change /veh KRTAP10-11 (11738290_x_at) / RFU MYO3A (11730013_a_at) / Fold change /veh MYO3A (11730013_a_at) / RFU EBF3 (11725865_a_at) / Fold change /veh EBF3 (11725865_a_at) / RFU CAMK2N1 (11719241_x_at) / Fold change /veh CAMK2N1 (11719241_x_at) / RFU C5orf56 (11738088_a_at) / Fold change /veh C5orf56 (11738088_a_at) / RFU OLFML3 (11715873_a_at) / Fold change /veh OLFML3 (11715873_a_at) / RFU LOC100653217 /// NTM (11731650_a_at) / Fold change /veh LOC100653217 /// NTM (11731650_a_at) / RFU MAPK11 (11762145_a_at) / Fold change /veh MAPK11 (11762145_a_at) / RFU FIZ1 (11724087_x_at) / Fold change /veh FIZ1 (11724087_x_at) / RFU OASL (11726364_x_at) / Fold change /veh OASL (11726364_x_at) / RFU SOX15 (11748057_x_at) / Fold change /veh SOX15 (11748057_x_at) / RFU CD79A (11719716_a_at) / Fold change /veh CD79A (11719716_a_at) / RFU HIST1H1D (11736915_at) / Fold change /veh HIST1H1D (11736915_at) / RFU CASKIN2 (11723855_a_at) / Fold change /veh CASKIN2 (11723855_a_at) / RFU LOC730098 (11760151_x_at) / Fold change /veh LOC730098 (11760151_x_at) / RFU OR4N2 (11742367_at) / Fold change /veh OR4N2 (11742367_at) / RFU PRRT2 (11749266_a_at) / Fold change /veh PRRT2 (11749266_a_at) / RFU SNX32 (11753110_a_at) / Fold change /veh SNX32 (11753110_a_at) / RFU CDHR5 (11726645_a_at) / Fold change /veh CDHR5 (11726645_a_at) / RFU RCAN1 (11760418_a_at) / Fold change /veh RCAN1 (11760418_a_at) / RFU FAM167A (11723789_a_at) / Fold change /veh FAM167A (11723789_a_at) / RFU FAM26E (11764081_at) / Fold change /veh FAM26E (11764081_at) / RFU ISYNA1 (11749810_s_at) / Fold change /veh ISYNA1 (11749810_s_at) / RFU ACY1 (11761880_at) / Fold change /veh ACY1 (11761880_at) / RFU 11764098_at / Fold change /veh 11764098_at / RFU SAMD14 (11745864_x_at) / Fold change /veh SAMD14 (11745864_x_at) / RFU NPB (11741838_a_at) / Fold change /veh NPB (11741838_a_at) / RFU TMPRSS6 (11731388_a_at) / Fold change /veh TMPRSS6 (11731388_a_at) / RFU KRTAP10-2 (11738614_at) / Fold change /veh KRTAP10-2 (11738614_at) / RFU ARHGAP8 /// PRR5-ARHGAP8 (11727945_x_at) / Fold change /veh ARHGAP8 /// PRR5-ARHGAP8 (11727945_x_at) / RFU KRTAP5-7 /// NADSYN1 (11734609_at) / Fold change /veh KRTAP5-7 /// NADSYN1 (11734609_at) / RFU RASL12 (11751679_a_at) / Fold change /veh RASL12 (11751679_a_at) / RFU CDKN2B (11736163_a_at) / Fold change /veh CDKN2B (11736163_a_at) / RFU PRF1 (11729649_at) / Fold change /veh PRF1 (11729649_at) / RFU, ZNF638 /// ZNF638-IT1 / Fold change vs veh, ZNF638 /// ZNF638-IT1 / RFU, PANK3 / Fold change vs veh, PANK3 / RFU, SH3YL1 / Fold change vs veh, SH3YL1 / RFU, ZEB2 / Fold change vs veh, ZEB2 / RFU, NRIP1 / Fold change vs veh, NRIP1 / RFU, PTTG1IP / Fold change vs veh, PTTG1IP / RFU, CAPN2 / Fold change vs veh, CAPN2 / RFU, MED14 / Fold change vs veh, MED14 / RFU, SNORA58 / Fold change vs veh, SNORA58 / RFU, C1orf63 / Fold change vs veh, C1orf63 / RFU, LRRFIP1 / Fold change vs veh, LRRFIP1 / RFU, NDUFAF7 / Fold change vs veh, NDUFAF7 / RFU, SLC12A2 / Fold change vs veh, SLC12A2 / RFU, IBTK / Fold change vs veh, IBTK / RFU, ESF1 / Fold change vs veh, ESF1 / Fold change vs veh, TMEM50B / RFU, TAOK1 / Fold change vs veh, TAOK1 / RFU, ACBD3 / Fold change vs veh, ACBD3 / RFU, TMA16 / Fold change vs veh, TMA16 / RFU, RWDD3 / Fold change vs veh, RWDD3 / RFU, BCAT1 / Fold change vs veh, BCAT1 / RFU, EDEM3 / Fold change vs veh, EDEM3 / RFU, TMEM33 / Fold change vs veh, TMEM33 / RFU, WDR75 / Fold change vs veh, WDR75 / RFU, AHCTF1 / Fold change vs veh, AHCTF1 / RFU, TFRC / Fold change vs veh, TFRC / RFU, ZDHHC17 / Fold change vs veh, ZDHHC17 / RFU, NOM1 / Fold change vs veh, NOM1 / RFU, ARL8B / Fold change vs veh, ARL8B / RFU, ZBTB11 / Fold change vs veh, ZBTB11 / RFU, TAMM41 / Fold change vs veh, TAMM41 / RFU, KIAA1704 /// LOC100996395 / Fold change vs veh, KIAA1704 /// LOC100996395 / RFU, ING1 / Fold change vs veh, ING1 / RFU, TRMT61B / Fold change vs veh, TRMT61B / RFU, FUBP3 / Fold change vs veh, FUBP3 / RFU, TP53 / Fold change vs veh, TP53 / RFU, TNKS2 / Fold change vs veh, TNKS2 / RFU, ZFP14 / Fold change vs veh, ZFP14 / RFU, ACTR2 / Fold change vs veh, ACTR2 / RFU, PPP3R1 / Fold change vs veh, PPP3R1 / RFU, PIK3R1 / Fold change vs veh, PIK3R1 / RFU, HNRNPA1 / Fold change vs veh, HNRNPA1 / RFU, RNF170 / Fold change vs veh, RNF170 / RFU, ZNF28 / Fold change vs veh, ZNF28 / RFU, RNGTT / Fold change vs veh, RNGTT / RFU, OGT / Fold change vs veh, OGT / RFU, BRD1 / Fold change vs veh, BRD1 / RFU, MARS / Fold change vs veh, MARS / RFU, ZNF655 / Fold change vs veh, ZNF655 / RFU, FAHD1 / Fold change vs veh, FAHD1 / RFU, BDP1 / Fold change vs veh, BDP1 / RFU, LRRCC1 / Fold change vs veh, LRRCC1 / RFU, ARID1A / Fold change vs veh, ARID1A / RFU, ZNF146 / Fold change vs veh, ZNF146 / RFU, ZNF330 / Fold change vs veh, ZNF330 / RFU, GPN3 / Fold change vs veh, GPN3 / RFU, C9orf123 / Fold change vs veh, C9orf123 / RFU, N4BP2L2 / Fold change vs veh, N4BP2L2 / RFU, ARFIP1 / Fold change vs veh, ARFIP1 / RFU, FAM179B / Fold change vs veh, FAM179B / RFU, BCL10 / Fold change vs veh, BCL10 / RFU, UHRF1BP1L / Fold change vs veh, UHRF1BP1L / RFU, BET1 / Fold change vs veh, BET1 / RFU, CNOT2 / Fold change vs veh, CNOT2 / RFU, ZNF268 / Fold change vs veh, ZNF268 / Fold change vs veh, ZNF507 / RFU, DGCR2 / Fold change vs veh, DGCR2 / RFU, WDSUB1 / Fold change vs veh, WDSUB1 / Fold change vs veh, HSP90B1 /// MIR3652 / RFU, ADSS / Fold change vs veh, ADSS / RFU, GK / Fold change vs veh, GK / RFU, ZNF148 / Fold change vs veh, ZNF148 / RFU, TAF9 / Fold change vs veh, TAF9 / RFU, SLC1A5 / Fold change vs veh, SLC1A5 / RFU, SLMO2 / Fold change vs veh, SLMO2 / RFU, ABCC4 / Fold change vs veh, ABCC4 / RFU, LOC101060439 /// RAP1B / Fold change vs veh, LOC101060439 /// RAP1B / RFU, RFX7 / Fold change vs veh, RFX7 / RFU, GTPBP10 / Fold change vs veh, GTPBP10 / RFU, CNEP1R1 / Fold change vs veh, CNEP1R1 / RFU, BIVM-ERCC5 /// ERCC5 / Fold change vs veh, BIVM-ERCC5 /// ERCC5 / RFU, ILF3 / Fold change vs veh, ILF3 / RFU 11762660_at / Fold change /veh 11762660_at / RFU VCAN (11757783_s_at) / Fold change /veh VCAN (11757783_s_at) / RFU DDX43 (11728927_at) / Fold change /veh DDX43 (11728927_at) / RFU KRT8 (11758188_x_at) / Fold change /veh KRT8 (11758188_x_at) / RFU NKD1 (11759106_at) / Fold change /veh NKD1 (11759106_at) / RFU SRD5A1 (11742802_a_at) / Fold change /veh SRD5A1 (11742802_a_at) / RFU TPSAB1 /// TPSB2 (11721975_s_at) / Fold change /veh TPSAB1 /// TPSB2 (11721975_s_at) / RFU GSTM3 (11746129_a_at) / Fold change /veh GSTM3 (11746129_a_at) / RFU IL23R (11737362_x_at) / Fold change /veh IL23R (11737362_x_at) / RFU TMEM51 (11727254_a_at) / Fold change /veh TMEM51 (11727254_a_at) / RFU PIWIL2 (11732686_x_at) / Fold change /veh PIWIL2 (11732686_x_at) / RFU ORM1 (11744905_x_at) / Fold change /veh ORM1 (11744905_x_at) / RFU CCDC152 (11743942_at) / Fold change /veh CCDC152 (11743942_at) / RFU ECM1 (11717891_a_at) / Fold change /veh ECM1 (11717891_a_at) / RFU IL23R (11748794_a_at) / Fold change /veh IL23R (11748794_a_at) / RFU TNFAIP8L3 (11732012_x_at) / Fold change /veh TNFAIP8L3 (11732012_x_at) / RFU MBOAT4 (11741988_at) / Fold change /veh MBOAT4 (11741988_at) / RFU 11764193_at / Fold change /veh 11764193_at / RFU TMEM53 (11763286_at) / Fold change /veh TMEM53 (11763286_at) / RFU MAGEB2 (11727129_at) / Fold change /veh MAGEB2 (11727129_at) / RFU TMEM200A (11744735_a_at) / Fold change /veh TMEM200A (11744735_a_at) / RFU CCDC152 (11751479_a_at) / Fold change /veh CCDC152 (11751479_a_at) / RFU FAM211A (11726209_a_at) / Fold change /veh FAM211A (11726209_a_at) / RFU RGS16 (11746705_a_at) / Fold change /veh RGS16 (11746705_a_at) / RFU VCAN (11755009_s_at) / Fold change /veh VCAN (11755009_s_at) / RFU RHOB (11743442_s_at) / Fold change /veh RHOB (11743442_s_at) / RFU RGS16 (11720943_a_at) / Fold change /veh RGS16 (11720943_a_at) / RFU RGS16 (11720944_at) / Fold change /veh RGS16 (11720944_at) / RFU, VPS4B / Fold change vs veh, VPS4B / RFU, CREB1 / Fold change vs veh, CREB1 / RFU, DNAJC13 / Fold change vs veh, DNAJC13 / RFU, GNAQ / Fold change vs veh, GNAQ / RFU, CDK5R1 / Fold change vs veh, CDK5R1 / RFU, ZRANB3 / Fold change vs veh, ZRANB3 / RFU, CUL4A / Fold change vs veh, CUL4A / RFU, CCNY / Fold change vs veh, CCNY / RFU, UFL1 / Fold change vs veh, UFL1 / RFU, COG3 / Fold change vs veh, COG3 / RFU, DIAPH2 / Fold change vs veh, DIAPH2 / RFU, SKA2 / Fold change vs veh, SKA2 / RFU, AFF3 / Fold change vs veh, AFF3 / RFU, LMF1 / Fold change vs veh, LMF1 / RFU, IPO11 / Fold change vs veh, IPO11 / RFU, DFFB / Fold change vs veh, DFFB / RFU, FOXP1 / Fold change vs veh, FOXP1 / RFU, CARD8 / Fold change vs veh, CARD8 / RFU, STRN3 / Fold change vs veh, STRN3 / RFU, ADK / Fold change vs veh, ADK / RFU, RASSF2 / Fold change vs veh, RASSF2 / RFU, WIPF1 / Fold change vs veh, WIPF1 / RFU, LARP1B / Fold change vs veh, LARP1B / RFU, RASA1 / Fold change vs veh, RASA1 / RFU, RB1 / Fold change vs veh, RB1 / RFU, PPFIA1 / Fold change vs veh, PPFIA1 / RFU, MAT2A / Fold change vs veh, MAT2A / RFU, CCT5 / Fold change vs veh, CCT5 / RFU, WDR92 / Fold change vs veh, WDR92 / RFU, CUX1 / Fold change vs veh, CUX1 / RFU, TTC7A / Fold change vs veh, TTC7A / RFU, TMEM135 / Fold change vs veh, TMEM135 / RFU, DEPTOR / Fold change vs veh, DEPTOR / RFU, CPM / Fold change vs veh, CPM / RFU, DNAJB6 / Fold change vs veh, DNAJB6 / RFU, CACNA2D3 / Fold change vs veh, CACNA2D3 / RFU, DTX4 / Fold change vs veh, DTX4 / RFU, TFCP2 / Fold change vs veh, TFCP2 / RFU, GMCL1 /// GMCL1P1 / Fold change vs veh, GMCL1 /// GMCL1P1 / RFU, AEBP2 / Fold change vs veh, AEBP2 / RFU, SNHG1 /// SNORD22 /// SNORD25 /// SNORD26 /// SNORD27 /// SNORD28 /// SNORD29 /// SNORD31 / Fold change vs veh, SNHG1 /// SNORD22 /// SNORD25 /// SNORD26 /// SNORD27 /// SNORD28 /// SNORD29 /// SNORD31 / Fold change (Aza/veh), C12orf56 (ProbeSet 11735607_a_at) / Fold change (ACY-1035/veh), C12orf56 (ProbeSet 11735607_a_at) / Fold change (Aza/veh), FGFR1OP (ProbeSet 11751329_s_at) / Fold change (ACY-1035/veh), FGFR1OP (ProbeSet 11751329_s_at) / Fold change (Aza/veh), VPS36 (ProbeSet 11739960_a_at) / Fold change (ACY-1035/veh), VPS36 (ProbeSet 11739960_a_at) / RFU SYPL1 (11715823_x_at) / Fold change /veh SYPL1 (11715823_x_at) / RFU IGFBP7 (11715501_s_at) / Fold change /veh IGFBP7 (11715501_s_at) / RFU REEP3 (11722064_at) / Fold change /veh REEP3 (11722064_at) / RFU IGLL1 (11728026_x_at) / Fold change /veh IGLL1 (11728026_x_at): dose or concentration left out as unconfirmed
Conditions: ProbeSet 11725787_a_at; LIST B

## Nc1ccc(-c2cccs2)cc1NC(=O)c1ccc2c(c1)cc(C1CC1)n2CCN1CCOCC1 [ACY-1035]
  RFU, TMA16: 138.28 RFU

— publication PMC5218480 (PLoS ONE, 2017)
